Measurements published in article PMC10211317, “Identification of ARUK2002821 as an isoform-selective PI5P4Kα inhibitor” (RSC Medicinal Chemistry, 2023).

Tests used:
Assay in all cases: Premier Screen kinase panel (MRC PPU)
Type in all cases: biochemical
Aurora A = Aurora A (Homo sapiens, UniProt O14965); settings: Aurora A (Entrez AURKA), read-out: Residual activity (%)
Procedure: (§1) room temperature with shaking for 30 minutes. The kinase concentration in the eluates was measured by qPCR.
(§2) using ADP-GloTM assay at the MRC PPU International Centre for Kinase Profiling, University of Dundee.
(§3) Conducted by MRC PPU International Centre
(§4) Conducted by MRC PPU International Centre for […]

BRSK2 = BRSK2 (Homo sapiens, UniProt Q8IWQ3); settings: BRSK2 (Entrez BRSK2), read-out: Residual activity (%)
Procedure: as §1, §2, §3, §4

CK2 = CK2 (Homo sapiens, UniProt P68400); settings: CK2 (Entrez CSNK2A1), read-out: Residual activity (%)
Procedure: as §1, §2, §3, §4

DDR2 = DDR2 (Homo sapiens, UniProt Q16832); settings: DDR2 (Entrez DDR2), read-out: Residual activity (%)
Procedure: as §1, §2, §3, §4

EF2K = EF2K (Homo sapiens, UniProt O00418); settings: EF2K (Entrez EEF2K), read-out: Residual activity (%)
Procedure: as §1, §2, §3, §4

ERK8 = ERK8 (Homo sapiens, UniProt Q8TD08); settings: ERK8 (Entrez MAPK15), read-out: Residual activity (%)
Procedure: as §1, §2, §3, §4

FGF-R1 = FGF-R1 (Homo sapiens, UniProt P11362); settings: FGF-R1 (Entrez FGFR1), read-out: Residual activity (%)
Procedure: as §1, §2, §3, §4

GCK = GCK (Homo sapiens, UniProt Q12851); settings: read-out: Residual activity (%)
Procedure: as §1, §2, §3, §4

IRAK1 = IRAK1 (Homo sapiens, UniProt P51617); settings: IRAK1 (Entrez IRAK1), read-out: Residual activity (%)
Procedure: as §1, §2, §3, §4

MAPKAP-K2 = MAPKAP-K2 (Homo sapiens, UniProt P49137); settings: MAPKAP-K2 (Entrez MAPKAPK2), read-out: Residual activity (%)
Procedure: as §1, §2, §3, §4

MAPKAP-K3 = MAPKAP-K3 (Homo sapiens, UniProt Q16644); settings: MAPKAP-K3 (Entrez MAPKAPK3), read-out: Residual activity (%)
Procedure: as §1, §2, §3, §4

MARK1 = MARK1 (Homo sapiens, UniProt Q9P0L2); settings: MARK1 (Entrez MARK1), read-out: Residual activity (%)
Procedure: as §1, §2, §3, §4

MARK2 = MARK2 (Homo sapiens, UniProt Q7KZI7); settings: MARK2 (Entrez MARK2), read-out: Residual activity (%)
Procedure: as §1, §2, §3, §4

MARK4 = MARK4 (Homo sapiens, UniProt Q96L34); settings: MARK4 (Entrez MARK4), read-out: Residual activity (%)
Procedure: as §1, §2, §3, §4

MNK1 = MNK1 (Homo sapiens, UniProt Q9BUB5); settings: MNK1 (Entrez MKNK1), read-out: Residual activity (%)
Procedure: as §1, §2, §3, §4

NEK6 = NEK6 (Homo sapiens, UniProt Q9HC98); settings: NEK6 (Entrez NEK6), read-out: Residual activity (%)
Procedure: as §1, §2, §3, §4

PAK6 = PAK6 (Homo sapiens, UniProt Q9NQU5); settings: PAK6 (Entrez PAK6), read-out: Residual activity (%)
Procedure: as §1, §2, §3, §4

PIM3 = PIM3 (Homo sapiens, UniProt Q86V86); settings: PIM3 (Entrez PIM3), read-out: Residual activity (%)
Procedure: as §1, §2, §3, §4

PKA = PKA (Homo sapiens, UniProt P17612); settings: PKA (Entrez PRKAC), read-out: Residual activity (%)
Procedure: as §1, §2, §3, §4

PLK1 = PLK1 (Homo sapiens, UniProt P53350); settings: PLK1 (Entrez PLK1), read-out: Residual activity (%)
Procedure: as §1, §2, §3, §4

S6K1 = S6K1 (Homo sapiens, UniProt P23443); settings: S6K1 (Entrez RPS6KB1), read-out: Residual activity (%)
Procedure: as §1, §2, §3, §4

STK33 = STK33 (Homo sapiens, UniProt Q9BYT3); settings: STK33 (Entrez STK33), read-out: Residual activity (%)
Procedure: as §1, §2, §3, §4

SYK = SYK (Homo sapiens, UniProt P43405); settings: SYK (Entrez SYK), read-out: Residual activity (%)
Procedure: as §1, §2, §3, §4

TAK1 = TAK1 (Homo sapiens, UniProt O43318); settings: TAK1 (Entrez MAP3K7), read-out: Residual activity (%)
Procedure: as §1, §2, §3, §4

TAO1 = TAO1 (Homo sapiens, UniProt Q7L7X3); settings: TAO1 (Entrez TAOK1), read-out: Residual activity (%)
Procedure: as §1, §2, §3, §4

TGFBR1 = TGFBR1 (Homo sapiens, UniProt P36897); settings: TGFBR1 (Entrez TGFBR1), read-out: Residual activity (%)
Procedure: as §1, §2, §3, §4

TLK1 = TLK1 (Homo sapiens, UniProt Q9UKI8); settings: TLK1 (Entrez TLK1), read-out: Residual activity (%)
Procedure: as §1, §2, §3, §4

ULK1 = ULK1 (Homo sapiens, UniProt O75385); settings: ULK1 (Entrez ULK1), read-out: Residual activity (%)
Procedure: as §1, §2, §3, §4

ZAP70 = ZAP70 (Homo sapiens, UniProt P43403); settings: ZAP70 (Entrez ZAP70), read-out: Residual activity (%)
Procedure: as §1, §2, §3, §4

p38a MAPK = p38a MAPK (Homo sapiens, UniProt Q16539); settings: p38a MAPK (Entrez MAPK14), read-out: Residual activity (%)
Procedure: as §1, §2, §3, §4

p38d MAPK = p38d MAPK (Homo sapiens, UniProt O15264); settings: p38d MAPK (Entrez MAPK12), read-out: Residual activity (%)
Procedure: as §1, §2, §3, §4

BRSK2, sequence (Q8IWQ3 whole entry): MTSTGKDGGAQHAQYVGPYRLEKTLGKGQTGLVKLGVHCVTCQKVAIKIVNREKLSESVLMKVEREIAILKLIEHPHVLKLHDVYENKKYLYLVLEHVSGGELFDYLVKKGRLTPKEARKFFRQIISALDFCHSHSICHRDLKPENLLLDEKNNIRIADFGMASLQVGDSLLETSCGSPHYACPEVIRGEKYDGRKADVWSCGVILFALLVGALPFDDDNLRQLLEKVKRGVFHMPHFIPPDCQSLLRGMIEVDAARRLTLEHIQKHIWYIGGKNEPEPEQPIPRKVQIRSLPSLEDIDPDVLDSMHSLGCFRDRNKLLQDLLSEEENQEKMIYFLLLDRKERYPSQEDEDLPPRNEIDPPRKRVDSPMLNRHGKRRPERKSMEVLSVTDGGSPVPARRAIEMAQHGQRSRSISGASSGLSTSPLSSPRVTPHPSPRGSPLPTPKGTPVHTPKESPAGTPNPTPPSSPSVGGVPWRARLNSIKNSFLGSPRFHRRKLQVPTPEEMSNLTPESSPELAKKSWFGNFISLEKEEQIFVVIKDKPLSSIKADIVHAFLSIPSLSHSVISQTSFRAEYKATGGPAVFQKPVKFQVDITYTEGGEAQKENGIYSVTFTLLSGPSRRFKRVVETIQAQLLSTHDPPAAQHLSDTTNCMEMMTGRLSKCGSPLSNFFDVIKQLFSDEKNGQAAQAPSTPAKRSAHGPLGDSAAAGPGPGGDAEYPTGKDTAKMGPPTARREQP
MARK4, sequence (Q96L34 whole entry): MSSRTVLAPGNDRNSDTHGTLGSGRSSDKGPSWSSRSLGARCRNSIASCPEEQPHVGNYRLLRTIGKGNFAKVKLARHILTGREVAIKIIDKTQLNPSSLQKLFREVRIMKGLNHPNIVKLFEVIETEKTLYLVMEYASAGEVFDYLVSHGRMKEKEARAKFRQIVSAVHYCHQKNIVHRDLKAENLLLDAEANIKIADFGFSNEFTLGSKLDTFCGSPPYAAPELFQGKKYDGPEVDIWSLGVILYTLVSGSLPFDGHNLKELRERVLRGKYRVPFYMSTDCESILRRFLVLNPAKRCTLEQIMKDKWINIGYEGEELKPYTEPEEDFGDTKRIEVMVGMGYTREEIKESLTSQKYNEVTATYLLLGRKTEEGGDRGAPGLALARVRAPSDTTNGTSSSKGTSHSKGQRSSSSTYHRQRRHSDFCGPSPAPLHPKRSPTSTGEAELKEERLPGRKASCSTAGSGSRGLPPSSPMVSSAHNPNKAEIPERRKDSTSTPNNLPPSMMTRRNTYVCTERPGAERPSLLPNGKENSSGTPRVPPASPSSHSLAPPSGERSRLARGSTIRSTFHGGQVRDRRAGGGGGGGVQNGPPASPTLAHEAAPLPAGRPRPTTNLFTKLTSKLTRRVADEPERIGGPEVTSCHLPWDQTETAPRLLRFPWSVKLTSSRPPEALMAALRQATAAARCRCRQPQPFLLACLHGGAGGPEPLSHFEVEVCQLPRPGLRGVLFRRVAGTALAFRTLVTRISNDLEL
GCK, sequence (Q12851 whole entry): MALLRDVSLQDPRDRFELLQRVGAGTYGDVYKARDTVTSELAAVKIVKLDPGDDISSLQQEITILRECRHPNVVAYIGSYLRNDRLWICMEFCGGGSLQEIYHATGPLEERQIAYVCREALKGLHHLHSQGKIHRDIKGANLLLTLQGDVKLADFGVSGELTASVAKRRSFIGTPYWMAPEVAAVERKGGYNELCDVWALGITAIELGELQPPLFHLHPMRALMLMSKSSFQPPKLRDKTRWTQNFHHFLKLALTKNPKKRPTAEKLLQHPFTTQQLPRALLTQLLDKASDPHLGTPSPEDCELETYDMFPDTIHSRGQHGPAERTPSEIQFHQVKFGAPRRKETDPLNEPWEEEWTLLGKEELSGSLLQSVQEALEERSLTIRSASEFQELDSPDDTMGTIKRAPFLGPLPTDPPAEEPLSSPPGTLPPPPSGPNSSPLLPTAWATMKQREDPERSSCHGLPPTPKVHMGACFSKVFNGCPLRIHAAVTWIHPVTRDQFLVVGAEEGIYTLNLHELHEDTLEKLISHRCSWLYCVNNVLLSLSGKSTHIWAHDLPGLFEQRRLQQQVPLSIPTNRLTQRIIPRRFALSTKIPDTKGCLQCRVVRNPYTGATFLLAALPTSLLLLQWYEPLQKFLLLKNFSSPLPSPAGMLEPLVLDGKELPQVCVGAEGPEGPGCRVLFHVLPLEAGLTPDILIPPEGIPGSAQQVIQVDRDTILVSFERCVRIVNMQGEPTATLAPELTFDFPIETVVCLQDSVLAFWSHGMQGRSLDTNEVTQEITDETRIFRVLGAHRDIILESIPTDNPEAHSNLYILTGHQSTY
MNK1, sequence (Q9BUB5 whole entry): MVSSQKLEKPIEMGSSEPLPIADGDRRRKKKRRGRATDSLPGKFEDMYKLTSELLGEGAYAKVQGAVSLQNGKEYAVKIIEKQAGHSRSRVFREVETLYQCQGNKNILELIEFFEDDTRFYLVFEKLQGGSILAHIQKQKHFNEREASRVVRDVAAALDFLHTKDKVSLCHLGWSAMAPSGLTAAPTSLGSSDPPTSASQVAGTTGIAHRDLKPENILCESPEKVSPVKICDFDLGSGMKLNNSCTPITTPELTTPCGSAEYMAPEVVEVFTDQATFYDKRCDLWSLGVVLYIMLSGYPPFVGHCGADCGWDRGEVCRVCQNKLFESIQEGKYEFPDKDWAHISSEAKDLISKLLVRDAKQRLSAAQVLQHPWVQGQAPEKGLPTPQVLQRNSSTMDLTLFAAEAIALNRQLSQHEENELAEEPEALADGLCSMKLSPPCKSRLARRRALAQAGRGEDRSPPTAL
STK33, sequence (Q9BYT3 whole entry): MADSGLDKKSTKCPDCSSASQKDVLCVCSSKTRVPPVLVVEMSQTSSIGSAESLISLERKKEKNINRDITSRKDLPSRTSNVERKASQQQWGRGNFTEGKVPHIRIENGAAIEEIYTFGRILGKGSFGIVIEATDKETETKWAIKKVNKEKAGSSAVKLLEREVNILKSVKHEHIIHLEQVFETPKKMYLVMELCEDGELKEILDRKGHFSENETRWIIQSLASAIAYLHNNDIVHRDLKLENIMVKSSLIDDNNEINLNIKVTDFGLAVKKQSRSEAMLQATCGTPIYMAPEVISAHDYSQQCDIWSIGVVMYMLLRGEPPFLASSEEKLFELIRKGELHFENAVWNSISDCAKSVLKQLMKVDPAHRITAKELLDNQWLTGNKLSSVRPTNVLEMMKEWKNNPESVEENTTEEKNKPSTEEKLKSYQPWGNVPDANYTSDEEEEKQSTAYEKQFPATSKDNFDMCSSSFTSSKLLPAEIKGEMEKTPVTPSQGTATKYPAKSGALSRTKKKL
ZAP70, sequence (P43403 whole entry): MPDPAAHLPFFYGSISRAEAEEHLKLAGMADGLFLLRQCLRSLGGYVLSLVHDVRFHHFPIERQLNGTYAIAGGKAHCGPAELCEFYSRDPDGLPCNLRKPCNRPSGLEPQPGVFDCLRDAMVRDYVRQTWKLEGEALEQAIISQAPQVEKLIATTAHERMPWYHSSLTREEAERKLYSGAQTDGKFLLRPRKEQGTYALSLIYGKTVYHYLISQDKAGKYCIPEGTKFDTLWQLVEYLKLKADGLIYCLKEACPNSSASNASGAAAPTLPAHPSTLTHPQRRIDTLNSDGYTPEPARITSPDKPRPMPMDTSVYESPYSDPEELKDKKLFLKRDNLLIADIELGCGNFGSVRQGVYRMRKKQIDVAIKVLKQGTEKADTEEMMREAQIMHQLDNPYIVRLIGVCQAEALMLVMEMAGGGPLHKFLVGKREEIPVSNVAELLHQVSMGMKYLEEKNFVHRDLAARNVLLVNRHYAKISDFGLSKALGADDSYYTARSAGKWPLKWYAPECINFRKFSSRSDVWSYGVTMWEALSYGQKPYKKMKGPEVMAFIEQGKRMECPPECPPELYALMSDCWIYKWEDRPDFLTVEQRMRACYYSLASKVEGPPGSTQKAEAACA
p38a MAPK, sequence (Q16539 whole entry): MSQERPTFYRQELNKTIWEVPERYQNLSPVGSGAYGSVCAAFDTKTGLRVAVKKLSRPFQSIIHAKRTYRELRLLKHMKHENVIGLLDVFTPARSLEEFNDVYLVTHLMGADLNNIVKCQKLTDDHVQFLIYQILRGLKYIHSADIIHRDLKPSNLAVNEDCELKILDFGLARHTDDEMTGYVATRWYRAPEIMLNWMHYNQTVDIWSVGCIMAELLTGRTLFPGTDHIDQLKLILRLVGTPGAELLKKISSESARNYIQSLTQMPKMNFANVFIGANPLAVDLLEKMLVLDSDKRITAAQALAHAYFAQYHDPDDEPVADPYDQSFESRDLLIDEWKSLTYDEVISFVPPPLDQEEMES
CK2, sequence (P68400 whole entry): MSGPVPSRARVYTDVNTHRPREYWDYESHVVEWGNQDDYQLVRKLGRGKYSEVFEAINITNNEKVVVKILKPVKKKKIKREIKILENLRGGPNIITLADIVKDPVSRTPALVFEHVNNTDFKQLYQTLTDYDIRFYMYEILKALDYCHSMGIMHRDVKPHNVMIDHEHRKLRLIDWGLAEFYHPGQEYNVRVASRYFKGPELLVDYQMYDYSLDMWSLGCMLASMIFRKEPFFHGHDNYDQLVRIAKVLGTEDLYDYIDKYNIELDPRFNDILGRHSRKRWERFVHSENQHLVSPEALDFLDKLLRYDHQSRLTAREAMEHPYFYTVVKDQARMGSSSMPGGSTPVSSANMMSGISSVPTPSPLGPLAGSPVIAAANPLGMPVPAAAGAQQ

COc1ccc(Nc2ncnc3c2ccn3-c2ccc(C)c(C)c2)cc1Cl [compound 36]
remaining activity at 1 µM (Aurora A): 81%
remaining activity at 1 µM (BRSK2): 111%
remaining activity at 1 µM (CK2): 97%
remaining activity at 1 µM (DDR2): 115%
remaining activity at 1 µM (EF2K): 85%
remaining activity at 1 µM (ERK8): 110%
remaining activity at 1 µM (FGF-R1): 95%
remaining activity at 1 µM (GCK): 105%
remaining activity at 1 µM (IRAK1): 98%
remaining activity at 1 µM (MAPKAP-K2): 109%
remaining activity at 1 µM (MAPKAP-K3): 101%
remaining activity at 1 µM (MARK1): 113%
remaining activity at 1 µM (MARK2): 127%
remaining activity at 1 µM (MARK4): 76%
remaining activity at 1 µM (MNK1): 87%
remaining activity at 1 µM (NEK6): 104%
remaining activity at 1 µM (PAK6): 90%
remaining activity at 1 µM (PIM3): 87%
remaining activity at 1 µM (PKA): 80%
remaining activity at 1 µM (PLK1): 90%
remaining activity at 1 µM (S6K1): 89%
remaining activity at 1 µM (STK33): 93%
remaining activity at 1 µM (SYK): 97%
remaining activity at 1 µM (TAK1): 91%
remaining activity at 1 µM (TAO1): 111%
remaining activity at 1 µM (TGFBR1): 87%
remaining activity at 1 µM (TLK1): 96%
remaining activity at 1 µM (ULK1): 102%
remaining activity at 1 µM (ZAP70): 99%
remaining activity at 1 µM (p38a MAPK): 98%
remaining activity at 1 µM (p38d MAPK): 128%
